{"source": "patent US10577322B2", "about": "“5-methoxytryptophan and its derivatives and uses thereof” (National Health Research Institutes, priority 2015, dated 2020)", "key": {"COX-2 [1]": {"system": "COX-2", "experiment": "LPS-induced COX-2 protein expression in RAW264.7 cells (immunoblot)", "format": "cell-based, mouse", "conditions": "LPS 8 h", "procedure": "(§1) Mouse RAW264.7 macrophages were from the American Type Culture Collection and cultured in DMEM containing 10% FBS. […] The duration of LPS (100 ng/ml) treatment varied depending on the experiment.\n(§2) Cellular protein were resolved by 5% to 20% SDS-PAGE and transferred to nitrocellulose membranes and blotted with specific antibodies as previously described (Lee, G. L., et al.).\n(§3) After pretreating mouse macrophage RAW264.7 cells with different concentrations of 5-MTP for 30 min, cells were stimulated with LPS for 8 h. Cell lysates were immunoblotted with antibodies for COX-2 or β-actin. In addition, RAW264.7 cells were transfected with COX-2 promoter-luciferase plasmid. After 24 h transfection, the cells were incubated with LPS for 8 h. Luciferase activity was measured."}, "COX-2 [2]": {"system": "COX-2", "experiment": "PMA-induced COX-2 expression in A549 cells (immunoblot)", "format": "cell-based", "conditions": "for PMA-induced COX-2 protein expression: 30 min pretreatment, PMA 8 h", "procedure": "as §2\nAfter pretreating A549 cells with different concentrations of 5-MTP, 5-MTPE and NACT-5-MTP for 30 min, cells were stimulated with PMA for 8 h. Cell lysates were immunoblotted with antibodies for COX-2 or β-actin."}, "IL-6": {"system": "IL-6", "experiment": "LPS-induced IL-6 level in RAW264.7 culture supernatants (ELISA)", "format": "cell-based, mouse", "conditions": "RAW264.7 cells; for LPS-induced IL-6 protein expression: LPS 8 h", "procedure": "as §1\nMoreover, RAW264.7 cells and IL-6 promoter-luciferase plasmid transfected RAW264.7 cells were pretreated with different concentrations of 5-MTP for 30 min, followed by LPS stimulation for 8 h. IL-6 promoter activity was measured by luciferase assay. IL-6 level in culture supernatants was measured by ELISA.\nFurthermore, RAW264.7 cells were treated with different concentrations of 5-MTP or 5-MTPE for 24 h. Cell viability was determined by MTT assay. In another experiment, after pretreating RAW264.7 cells with different concentrations of 5-MTP or 5-MTPE for 30 min, cells were stimulated with LPS for 24 h. IL-6 level in culture supernatants was measured by ELISA.\n(§4) Herein, after pretreating RAW264.7 cells with different concentrations of 5-MTP, 5-MTPE, COX-2 inhibitors (NSC398 or SC560) and NF-κB inhibitor JSH-23 for 30 min, cells were stimulated with LPS. In addition, RAW264.7 cells were also transfected with COX-2 promoter-luciferase plasmid. After 24 h transfection, the cells were incubated with LPS for 8 h. Luciferase activity as measured."}, "COX-2 promoter": {"system": "COX-2 promoter", "experiment": "COX-2 promoter-luciferase assay in RAW264.7 cells", "format": "cell-based, mouse", "conditions": "LPS 8 h", "procedure": "RAW264.7 macrophages were cotransfected with COX-2 promoter-luciferase, IL-6 promoter-luciferase constructs as previously described (Lee, G. L., et al.) or p5xNF-κB-luciferase (Stratagene) and pcDNA3.1-β-galactosidase plasmids using FuGENE 6 (Roche). After overnight transfection, the cells were incubated with or without LPS in the presence or absence of 5-MTP for 8 h. After treatment, cells were lysed, and luciferase activity was measured using an assay kit (Promega). β-galactosidase activity was used to normalize the data.\nas §3, with “measured. The experiments were repeated 3 times with similar results. The results shown in FIGS. 3A-3B confirmed that 5-MTP blocked LPS-induced COX-2 protein expression and promoter activity in a concentration-dependent manner in RAW264.7 cells.” for “measured.”\nas §4"}, "[3]": {"system": "BT474 breast cancer cells", "experiment": "Transwell cell migration assay, BT474", "format": "cell-based", "conditions": "30 min pretreatment, PMA 4 h or 24 h", "procedure": "(§5) Briefly, cells (10^4/well) were seeded on the upper chamber (6.5-mm insert, 8-μm polycarbonate membrane; Corning Inc.), which was placed in each well of a 24-well plate. The lower chamber was filled with 700 μL DMEM supplemented with 10% FBS. For assessment of in vitro invasion, cells were seeded onto the upper chamber insert coated with Matrigel (BD Biosciences) under the same conditions as the transwell migration assays. At the indicated time, nonmigrated cells that remained at the top surface of the insert were removed with a cotton swab. Cells that migrated to the lower membrane surface and cells that invaded through the matrigel gel to the underside of the membrane were fixed, stained with 0.1% crystal violet for 20 min, and counted under light microscopy. All of the assays were done in triplicate with excellent reproducibility.\n(§6) Lung cancer A549 and breast cancers BT474 and T47D cells were pretreated with different concentrations of 5-MTP or 5-MTPE for 30 min, then stimulated with PMA for 4 h or 24 h. Cell migration was measured by the transwell migration assay."}, "A549 lung cancer cells": {"system": "A549 lung cancer cells", "experiment": "Transwell cell migration assay, A549", "format": "cell-based", "conditions": "30 min pretreatment, PMA 4 h or 24 h", "procedure": "as §5, §6"}, "T47D breast cancer cells": {"system": "T47D breast cancer cells", "experiment": "Transwell cell migration assay, T47D", "format": "cell-based", "conditions": "30 min pretreatment, PMA 4 h or 24 h", "procedure": "as §5, §6"}}}
{"compound": "COc1ccc2[nH]cc(CCN)c2c1", "note": "[5-methoxytryptamine, reference compound]", "values": [{"measurement": "LPS-induced COX-2 protein expression", "setting": "COX-2 [1]", "value": "neither serotonin nor 5-methoxytryptamine or tryptophan exerted an effect"}, {"measurement": "PMA-induced COX-2 protein expression", "setting": "COX-2 [2]", "value": "neither serotonin nor 5-methoxytryptamine or tryptophan exerted an effect"}, {"measurement": "LPS-induced IL-6 protein expression", "setting": "IL-6", "value": "neither serotonin nor 5-methoxytryptamine or tryptophan exerted an effect"}]}
{"compound": "Cc1ccc(NCCCc2ccccc2)c(N)c1", "note": "[JSH-23, reference compound]", "values": [{"measurement": "LPS-induced COX-2 promoter activity (luciferase)", "setting": "COX-2 promoter", "value": "dose-dependently blocked"}, {"measurement": "LPS-induced IL-6 level in culture supernatants", "setting": "IL-6; 30 min pretreatment, LPS 24 h", "value": "dose-dependently blocked"}]}
{"compound": "NCCc1c[nH]c2ccc(O)cc12", "note": "[Serotonin, reference compound]", "values": [{"measurement": "LPS-induced COX-2 protein expression", "setting": "COX-2 [1]", "value": "neither serotonin nor 5-methoxytryptamine or tryptophan exerted an effect"}, {"measurement": "PMA-induced COX-2 protein expression", "setting": "COX-2 [2]", "value": "neither serotonin nor 5-methoxytryptamine or tryptophan exerted an effect"}, {"measurement": "LPS-induced IL-6 protein expression", "setting": "IL-6", "value": "neither serotonin nor 5-methoxytryptamine or tryptophan exerted an effect"}]}
{"compound": "N[C@@H](Cc1c[nH]c2ccccc12)C(=O)O", "note": "[Tryptophan]", "values": [{"measurement": "LPS-induced COX-2 protein expression", "setting": "COX-2 [1]", "value": "neither serotonin nor 5-methoxytryptamine or tryptophan exerted an effect"}, {"measurement": "PMA-induced COX-2 protein expression", "setting": "COX-2 [2]", "value": "neither serotonin nor 5-methoxytryptamine or tryptophan exerted an effect"}, {"measurement": "LPS-induced IL-6 protein expression", "setting": "IL-6", "value": "neither serotonin nor 5-methoxytryptamine or tryptophan exerted an effect"}]}
{"compound": "N-acetyl-5-MTP [NACT-5MTP]", "values": [{"measurement": "PMA-induced BT474 cell migration", "setting": "[3]", "value": "abrogated"}, {"measurement": "PMA-induced A549 cell migration", "setting": "A549 lung cancer cells", "value": "abrogated"}, {"measurement": "PMA-induced T47D cell migration", "setting": "T47D breast cancer cells", "value": "abrogated"}, {"measurement": "PMA-induced COX-2 protein expression", "setting": "COX-2 [2]", "value": "dose-dependently blocked"}, {"measurement": "COX-2 suppressive activity compared with 5-MTP", "setting": "COX-2 [2]; PMA", "value": "potent than that of 5-MTP"}]}
